PMC7749613 (Journal of Cachexia, Sarcopenia and Muscle, 2020)
Bridge positions count the residues as written; N and C are the ends. Square brackets hold non-standard residues; d marks the D form. Peptide text beside a SMILES is read from it. d2Nal = N[C@H](Cc1ccc2ccccc2c1)C(=O)O; Nle = CCCC[C@H](N)C(=O)O

Tests used:
OCT2 = molecular target: T1, OCT2 (Homo sapiens, UniProt O15244); experiment: Inhibition of prototypical substrate (MPP+) uptake by TCMCB07 in HEK293/OCT2 cells; assay type: in vitro ADME
T1 construct: host or cells: HEK293
T1 sequence (O15244 1-555): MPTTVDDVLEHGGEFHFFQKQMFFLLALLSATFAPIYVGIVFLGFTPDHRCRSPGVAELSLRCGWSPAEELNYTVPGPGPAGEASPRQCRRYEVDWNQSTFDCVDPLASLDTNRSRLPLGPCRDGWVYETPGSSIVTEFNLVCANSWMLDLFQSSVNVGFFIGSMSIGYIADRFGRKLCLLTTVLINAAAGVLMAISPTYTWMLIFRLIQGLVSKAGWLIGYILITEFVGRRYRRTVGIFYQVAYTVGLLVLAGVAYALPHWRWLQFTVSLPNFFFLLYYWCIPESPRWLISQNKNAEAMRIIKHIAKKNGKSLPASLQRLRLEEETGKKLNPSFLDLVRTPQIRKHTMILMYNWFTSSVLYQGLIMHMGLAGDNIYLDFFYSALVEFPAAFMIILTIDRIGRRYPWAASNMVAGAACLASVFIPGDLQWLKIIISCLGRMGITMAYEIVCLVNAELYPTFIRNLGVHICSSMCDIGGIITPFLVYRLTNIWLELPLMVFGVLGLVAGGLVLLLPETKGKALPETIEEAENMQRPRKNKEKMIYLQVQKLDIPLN
Protocol: Cells were then washed three times × 1.0 mL each with pre‐warmed Hank's Balanced Salt Solution (HBSS) buffer. A 0.5 mL aliquot of uptake buffer [HBSS plus 10 mM 4‐(2‐hydroxyethyl)‐1‐piperazineethanesulfonic acid (HEPES), pH 7.4], containing the radiolabelled prototypical substrate and mannitol, was then incubated for various times up to 60 min to determine the optimal incubation time for subsequent experiments (i.e. time of sampling during linear uptake conditions). At the designated times, 1.0 mL of ice‐cold HBSS buffer was added to stop uptake after which the cells were rinsed three times with 1.0 mL with ice‐cold HBSS. Hyamine hydroxide (0.33 mL) was then added to each well to lyse the cells. The cells were transferred into a scintillation vial and mixed with 6.0 mL of cytosine scintillation cocktail. Radioactivity of the solubilized cells was determined with a dual‐channel liquid scintillation counter (Beckman LS 6000; Beckman Coulter Inc., Fullerton, CA) and the protein quantified by a bicinchoninic acid protein assay kit (Pierce Biotechnology; Rockford, IL).

BCRP (ABCG2) = molecular target: T2, BCRP (ABCG2) (Homo sapiens, UniProt Q9UNQ0); experiment: Transepithelial transport of rosuvastatin (±TCMCB07) in MDCKII/BCRP cells; assay type: in vitro ADME
T2 construct: host or cells: MDCKII
T2 sequence (Q9UNQ0 1-655): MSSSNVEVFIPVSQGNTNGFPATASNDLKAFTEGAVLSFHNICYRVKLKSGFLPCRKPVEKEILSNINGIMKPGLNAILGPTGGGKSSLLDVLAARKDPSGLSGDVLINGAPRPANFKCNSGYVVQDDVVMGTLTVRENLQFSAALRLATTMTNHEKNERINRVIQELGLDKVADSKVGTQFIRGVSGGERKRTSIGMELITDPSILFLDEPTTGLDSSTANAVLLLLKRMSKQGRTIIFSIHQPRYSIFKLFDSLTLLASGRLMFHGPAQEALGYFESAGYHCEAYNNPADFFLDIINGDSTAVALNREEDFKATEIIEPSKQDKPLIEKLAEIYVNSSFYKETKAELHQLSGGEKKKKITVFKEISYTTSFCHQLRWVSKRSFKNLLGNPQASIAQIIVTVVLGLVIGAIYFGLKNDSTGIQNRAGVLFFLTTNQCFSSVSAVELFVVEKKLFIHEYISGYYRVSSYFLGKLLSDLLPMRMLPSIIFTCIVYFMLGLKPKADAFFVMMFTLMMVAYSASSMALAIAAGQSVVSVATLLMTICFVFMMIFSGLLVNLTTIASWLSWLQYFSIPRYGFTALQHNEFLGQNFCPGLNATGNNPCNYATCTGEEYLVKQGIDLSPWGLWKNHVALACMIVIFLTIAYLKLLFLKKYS
Protocol: Cells were then washed three times, each with 0.5 mL pre‐warmed HBSS buffer. […] The cells were then incubated for various times up to 60 min. […] At the designated times, 15 μL of apical buffer and 50 μL of basolateral buffer were sampled. Once all the samples were collected, 0.5 mL of ice‐cold HBSS buffer was added to the well to stop transport after which the cells were rinsed three times with 0.5 mL of ice‐cold HBSS. The filters with monolayers were then detached from the chamber and placed in a scintillation vial, and the cells were lysed with 0.33 mL hyamine hydroxide.
The permeability of digoxin and rosuvastatin (prototypical substrates for MDR1 and BCRP, respectively) was determined by the following ^18 : (4) Papp=CR·VR/CD^o·A·∆Δt, where Papp is the apparent permeability, CR is the concentration of substrate in the receiver chamber, CD^o is the concentration of substrate in the donor chamber at time zero, VR is the volume of buffer in the receiver chamber, A is the surface area of the insert filter membrane, and ∆t is the time over which permeability is measured.
A similar analysis can be performed for rosuvastatin by substituting ERRos for ERDig and ERRos+T for ERDig+T in Eqn 6.

[1] = in the presence of 500 μM TCMCB07, increased by

IC50 (OCT2): 1.17 mM | % Change ER of rosuvastatin, 100·(1−ERRos+T/ERRos) (BCRP (ABCG2); MDCKII/BCRP, 500 μM TCMCB07, negative = efflux ratio increased): −32% | increase of BCRP‐mediated permeability of rosuvastatin, A to B direction (BCRP (ABCG2); [1]): 5% | increase of BCRP‐mediated permeability of rosuvastatin, B to A direction (BCRP (ABCG2); [1]): 37% | effect on BCRP‐mediated permeability of prototypical substrate (BCRP (ABCG2); transfected cells, 500 μM TCMCB07): did not affect
SMILES: CCCC[C@H](NC(C)=O)C(=O)N[C@H]1CC(=O)NCCCC[C@@H](C(=O)N[C@@H](C(=O)N2CCC[C@@H]2C(N)=O)C(C)C)NC(=O)[C@H](Cc2c[nH]c3ccccc23)NC(=O)[C@H](CCCN=C(N)N)NC(=O)[C@@H](Cc2ccc3ccccc3c2)NC(=O)[C@@H]2CCCN2C1=O [TCMCB07, Ac‐Nle‐c[Asp‐Pro‐dNal2′‐Arg‐Trp‐Lys]‐dVal‐dPro‐NH2] (Ac-[Nle]DP[d2Nal]RWK[dV][dP]-NH2; lactam 2-7)
